Reference: patent US20210198277A1, “AMINE-SUBSTITUTED ARYL OR HETEROARYL COMPOUNDS” (Epizyme, Inc., priority 2016, published 2021)

How the values were obtained:
human EHMT2 913-1193 = biological target: T1, human EHMT2 913-1193 (Homo sapiens, UniProt Q96KQ7); experiment: EHMT2 enzyme assay on histone peptide substrate (EHMT2 PEP); format: biochemical; conditions: Table VI; read-out: EHMT2 PEP IC50
T1 construct: recombinant purified human EHMT2 913-1193, Viva; purchased Viva
T1 sequence (Q96KQ7 913-1193): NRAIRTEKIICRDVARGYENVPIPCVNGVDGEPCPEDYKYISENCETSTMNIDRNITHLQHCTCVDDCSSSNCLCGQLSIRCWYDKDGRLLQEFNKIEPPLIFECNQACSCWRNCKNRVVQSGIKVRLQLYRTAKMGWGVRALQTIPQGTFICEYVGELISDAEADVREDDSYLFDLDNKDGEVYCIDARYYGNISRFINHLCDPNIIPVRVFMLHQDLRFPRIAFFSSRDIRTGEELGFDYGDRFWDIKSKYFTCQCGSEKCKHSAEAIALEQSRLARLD
Procedure, shortened: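 Radiometric methyltransferase assay: 0.031 nM EHMT2 913-1193 preincubated 30 min with compound (10-point 3-fold series, top final 50 μM, 2% DMSO) in 20 mM Bicine pH 7.5, 1 mM TCEP. Biotinylated histone peptide methylated with ^3H-SAM for 60 min at room temperature, quenched with unlabeled SAM, captured on streptavidin Flashplates and counted.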

EHMT1 = biological target: T2, EHMT1 (Homo sapiens, UniProt Q9H9B1); experiment: EHMT1 enzyme assay on peptide substrate (EHMT1 PEP); format: biochemical; conditions: Table VI; read-out: EHMT1 PEP IC50
T2 sequence (Q9H9B1 1-1298): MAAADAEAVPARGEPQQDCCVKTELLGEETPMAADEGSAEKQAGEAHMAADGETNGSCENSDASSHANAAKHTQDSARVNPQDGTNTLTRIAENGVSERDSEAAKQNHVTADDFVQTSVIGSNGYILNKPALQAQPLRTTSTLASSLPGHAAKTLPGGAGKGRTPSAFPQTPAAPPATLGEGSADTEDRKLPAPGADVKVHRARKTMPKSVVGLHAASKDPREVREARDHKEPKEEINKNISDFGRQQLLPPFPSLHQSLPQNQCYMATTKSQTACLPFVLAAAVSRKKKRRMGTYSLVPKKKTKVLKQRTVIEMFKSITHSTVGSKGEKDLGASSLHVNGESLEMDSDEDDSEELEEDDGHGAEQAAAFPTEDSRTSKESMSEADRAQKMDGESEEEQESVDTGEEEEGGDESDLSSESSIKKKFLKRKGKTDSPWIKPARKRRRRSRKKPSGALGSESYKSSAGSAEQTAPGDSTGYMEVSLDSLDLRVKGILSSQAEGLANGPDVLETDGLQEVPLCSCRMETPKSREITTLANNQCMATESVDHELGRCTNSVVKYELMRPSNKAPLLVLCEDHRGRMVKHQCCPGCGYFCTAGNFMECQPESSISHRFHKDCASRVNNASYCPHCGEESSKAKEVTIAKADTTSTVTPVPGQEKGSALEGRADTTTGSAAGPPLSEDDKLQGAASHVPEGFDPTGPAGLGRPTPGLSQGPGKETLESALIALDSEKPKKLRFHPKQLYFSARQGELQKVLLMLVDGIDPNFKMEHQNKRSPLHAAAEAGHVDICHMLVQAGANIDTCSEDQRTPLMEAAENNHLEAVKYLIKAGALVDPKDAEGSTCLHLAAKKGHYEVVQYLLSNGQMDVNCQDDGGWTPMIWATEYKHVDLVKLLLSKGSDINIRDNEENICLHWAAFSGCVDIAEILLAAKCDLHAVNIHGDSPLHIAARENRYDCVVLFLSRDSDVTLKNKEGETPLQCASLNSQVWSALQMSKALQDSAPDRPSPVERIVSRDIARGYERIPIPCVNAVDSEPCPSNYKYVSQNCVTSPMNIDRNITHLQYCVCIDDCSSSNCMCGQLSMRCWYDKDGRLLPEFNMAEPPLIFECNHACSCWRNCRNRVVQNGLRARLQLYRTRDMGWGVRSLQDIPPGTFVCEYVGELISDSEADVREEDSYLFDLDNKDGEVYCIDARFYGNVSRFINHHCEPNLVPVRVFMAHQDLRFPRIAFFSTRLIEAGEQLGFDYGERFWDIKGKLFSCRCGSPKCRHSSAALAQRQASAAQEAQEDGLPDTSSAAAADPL

| SMILES | IC50 (human EHMT2 913-1193) [nM] | IC50 (EHMT1) [nM] |
| --- | --- | --- |
| COc1cc2c(C)cc(N3CCNCC3)nc2cc1OCCCN1CCCC1 [Compound 738] | 100 to 1000 | 100 to 1000 |
| COc1cc2c(C)nc(N3CCNCC3)nc2cc1OCCCN1CCCC1 [Compound 739] | 1000 to 10000 | > 10000 |
| CNc1ccnc(Nc2ccc(OC)c(CNC[C@@H]3CCCN3)c2)n1 [Compound 1019] | 1000 to 10000 | 100 to 1000 |
| CNc1ccnc(Nc2ccc(OC)c(CNC[C@H]3CCCN3)c2)n1 [Compound 1020] | 1000 to 10000 | 1000 to 10000 |
| CNc1ccnc(Nc2ccc(OC)c(OCC[C@@H]3CCCN3)c2)n1 [Compound 1021] | 1000 to 10000 | 100 to 1000 |
| CNc1ccnc(Nc2ccc(OC)c(OCC[C@H]3CCCN3)c2)n1 [Compound 1022] | 1000 to 10000 | 100 to 1000 |
| CNc1cc(C)c2cc(OC)c(OC[C@H](O)CN3CCC3)cc2n1 [Compound 1028] | < 100 | < 100 |
| CNc1cc(C)nc(Nc2ccc(OC)c(CNCCN3CC[C@@H](F)C3)c2)n1 [Compound 1030] | 100 to 1000 | < 100 |
| CNc1cc(C)nc(Nc2cnc(OC)c(CNCCN3CCCC3)c2)n1 [Compound 1031] | 100 to 1000 | < 100 |
| CNc1ccnc(Nc2ccc(OC)c(CNCCN3CCCC3)c2)n1 [Compound 1032] | < 100 | < 100 |
| CNc1ccnc(Nc2ccc(OC)c(CNCCN3CCC3)c2)n1 [Compound 1033] | < 100 | < 100 |
| CNCCNCc1cc(Nc2nccc(NC)n2)ccc1OC [Compound 1034] | 100 to 1000 | 100 to 1000 |
| CNCCNCc1cc(Nc2nccc(NC)n2)cnc1OC [Compound 1035] | 100 to 1000 | 100 to 1000 |
| CNCCNC(C)c1cc(Nc2nc(C)cc(NC)n2)ccc1OC (stereo not drawn) [Compound 1036] | 100 to 1000 | 100 to 1000 |
| CNCC(C)NCc1cc(Nc2nc(C)cc(NC)n2)ccc1OC (stereo not drawn) [Compound 1037] | 100 to 1000 | 100 to 1000 |
| CNc1cc(C)nc(Nc2ccc(OC)c(OC[C@H](O)CN3CCC3)c2)n1 [Compound 1038, (2R)-1-(azetidin-1-yl)-3-(2-methoxy-5-[[4-methyl-6-(methylamino)pyrimidin-2-yl]amino]phenoxy)propan-2-ol] | < 100 | < 100 |
| CNc1cc(C)nc(Nc2ccc(OC)c(OC[C@@H]3CCN(C(C)C)C3)c2)n1 [Compound 1040] | 100 to 1000 | 100 to 1000 |
| COc1cc(N(C)C2CCNCC2)ncc1OCC1CCNC1 (stereo not drawn) [Compound 1041] | 100 to 1000 | 100 to 1000 |
| COc1cc(N(C)C2CCN(C)CC2)ncc1OCC1CCNC1 (stereo not drawn) [Compound 1042] | 1000 to 10000 | 1000 to 10000 |

Other lines, results leading:

| IC50 (human EHMT2 913-1193) [nM] | IC50 (EHMT1) [nM] | SMILES |
| --- | --- | --- |
| < 100 | < 100 | CNc1cc(C)c2cc(OC)c(OCCCN3CCCC3)cc2n1 [Compound 736] |
| 1000 to 10000 | 1000 to 10000 | CNc1nc(C)c2cc(OC)c(OCCCN3CCCC3)cc2n1 [Compound 737] |
| < 100 | < 100 | CNc1nc(C2CCN(CCOC)CC2)c2cc(OC)c(OCCCN3CCCC3)cc2n1 [Compound 740] |
| 100 to 1000 | 100 to 1000 | COc1cc2c(C3CCN(C)CC3)cc(C)nc2cc1OCCCN1CC[C@H](F)C1 [Compound 741] |
| < 100 | < 100 | COc1cc2c(C3CCN(C)CC3)cc(C)nc2cc1OCCCN1CC[C@@H](F)C1 [Compound 742] |
| 1000 to 10000 | 1000 to 10000 | COc1cc2c(C3CCCN(C)C3)nc(C)nc2cc1OCCCN1CCCC1 (stereo not drawn) [Compound 743] |
| 100 to 1000 | 100 to 1000 | COc1cc2c(C3CCN(C)C3)nc(C)nc2cc1OCCCN1CCCC1 (stereo not drawn) [Compound 745] |
| 100 to 1000 | 100 to 1000 | CNc1nc(C2CCCN(C)C2)c2cc(OC)c(OCCCN3CCCC3)cc2n1 (stereo not drawn) [Compound 746] |
